These results are taken from ChEMBL document CHEMBL5625276, “Antascomicin B stabilizes FKBP51-Akt1 complexes as a molecular glue” (Bioorg Med Chem Lett, 2024).

Activity calls are given as the source filed them. The rule behind the calls is not given here.

For orientation: Kd means a measure of binding affinity in units of concentration.

Test [1] relates to HEK293T. Briefly: Stabilization of FLAG-tagged human FKBP51 K52pBpa incorporation mutant/human Akt S473A mutant in HEK293T cells assessed as photocrosslinking adduct formation at 1 uM pretreated with compound followed by UV irradiation for 30 mins by immunoprecipitation based Western blot analysis. In kind it is cell-based.
The target in test [2] is Peptidyl-prolyl cis-trans isomerase FKBP1A (Homo sapiens, UniProt P62942). Nature of the test: Binding affinity to human FKBP12 expressed in Escherichia coli BL21 DE3 Gold assessed as dissociation constant incubated for 30 mins by competitive fluorescence polarization assay. (In general: Fluorescence polarisation rises when a labelled molecule tumbles more slowly, as on binding a larger partner.)
Peptidyl-prolyl cis-trans isomerase FKBP1A, sequence (P62942 whole entry): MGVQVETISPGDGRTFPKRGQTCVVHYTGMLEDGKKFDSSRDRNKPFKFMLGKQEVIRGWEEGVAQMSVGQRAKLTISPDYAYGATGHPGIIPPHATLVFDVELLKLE

Test [3] addresses T1, Peptidyl-prolyl cis-trans isomerase FKBP5 (Homo sapiens, UniProt Q13451).
T1 sequence (Q13451 whole entry): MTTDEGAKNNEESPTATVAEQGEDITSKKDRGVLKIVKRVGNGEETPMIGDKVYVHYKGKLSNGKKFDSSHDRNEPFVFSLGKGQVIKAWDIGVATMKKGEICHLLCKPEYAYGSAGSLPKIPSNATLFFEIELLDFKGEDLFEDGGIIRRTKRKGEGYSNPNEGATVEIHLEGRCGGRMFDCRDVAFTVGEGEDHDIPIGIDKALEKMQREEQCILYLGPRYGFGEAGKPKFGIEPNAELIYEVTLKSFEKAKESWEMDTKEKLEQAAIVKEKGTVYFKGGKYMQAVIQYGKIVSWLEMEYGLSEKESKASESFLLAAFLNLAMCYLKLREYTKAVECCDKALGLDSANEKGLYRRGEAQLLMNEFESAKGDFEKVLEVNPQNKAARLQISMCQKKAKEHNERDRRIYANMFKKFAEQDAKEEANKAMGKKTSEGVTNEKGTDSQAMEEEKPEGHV
Nature of the test: Binding affinity to human FKBP51 FK1 domain expressed in Escherichia coli BL21 DE3 Gold assessed as dissociation constant incubated for 30 mins by competitive fluorescence polarization assay.

Test [4] concerns HEK293T. Briefly: Stabilization of FLAG-tagged human FKBP51 K52pBpa incorporation mutant/human Akt T308D mutant in HEK293T cells assessed as photocrosslinking adduct formation at 1 uM pretreated with compound followed by UV irradiation for 30 mins by immunoprecipitation based Western blot analysis. In kind it is cell-based.
Test [5] deals with HEK293T. Nature of the test: Stabilization of FLAG-tagged wild type human FKBP51/human Akt complex in HEK293T cells assessed as increase in Akt co-immunoprecipitation at 1 uM by Western blot analysis. In kind it is cell-based. Background: A western blot detects proteins with antibodies after separation by electrophoresis.
Test [6] relates to HEK293T. Briefly: Stabilization of FLAG tagged human FKBP51 P120pBpa incorporation mutant/human Akt complex in HEK293T cells assessed as induction of photocrosslinking adduct formation at 1 uM pretreated with compound followed by UV irradiation for 30 mins by immunoprecipitation based Western blot analysis. In kind it is cell-based.
The test system of test [7] is HEK293T. Nature of the test: Stabilization of FLAG-tagged human HSP90 binding incompetent FKBP51 K352A/R356A mutant/human Akt complex in HEK293T cells assessed as increase in Akt co-immunoprecipitation at 1 uM by Western blot analysis. The test is classed as cell-based.
Test [8] relates to HEK293T. Nature of the test: Stabilization of FLAG-tagged human FKBP51 K52pBpa incorporation mutant/human Akt T308A/S473A mutant in HEK293T cells assessed as photocrosslinking adduct formation at 1 uM pretreated with compound followed by UV irradiation for 30 mins by immunoprecipitation based Western blot analysis. In kind it is cell-based.
The subject of test [9] is HEK293T. Nature of the test: Stabilization of FLAG tagged human FKBP51 E75pBpa incorporation mutant/human Akt complex in HEK293T cells assessed as increase in photocrosslinking pretreated with compound followed by UV irradiation by immunoprecipitation based Western blot analysis. The test is classed as cell-based.
Test [10] has as its system HEK293T. Briefly: Stabilization of FLAG tagged human FKBP51 P120pBpa incorporation mutant/human Akt complex in HEK293T cells assessed as increase in Akt1 coimmunoprecipitation at 1 uM in absence of UV irradiation by immunoprecipitation based Western blot analysis. The test is classed as cell-based.
Test [11] deals with HEK293T. Nature of the test: Stabilization of FLAG tagged human FKBP51 K52pBpa incorporation mutant/human Akt complex in HEK293T cells assessed as increase in Akt1 coimmunoprecipitation at 1 uM in absence of UV irradiation by immunoprecipitation based Western blot analysis. In kind it is cell-based.
In test [12] the test system is HEK293T. Nature of the test: Stabilization of FLAG tagged human FKBP51 N74pBpa incorporation mutant/human Akt complex in HEK293T cells assessed as increase in photocrosslinking pretreated with compound followed by UV irradiation by immunoprecipitation based Western blot analysis. The test is classed as cell-based.
The target of test [13] is Peptidyl-prolyl cis-trans isomerase FKBP1B (Homo sapiens, UniProt P68106). Briefly: Binding affinity to human FKBP12.6 expressed in Escherichia coli BL21 DE3 Gold assessed as dissociation constant incubated for 30 mins by competitive fluorescence polarization assay.
Peptidyl-prolyl cis-trans isomerase FKBP1B, sequence (P68106 whole entry): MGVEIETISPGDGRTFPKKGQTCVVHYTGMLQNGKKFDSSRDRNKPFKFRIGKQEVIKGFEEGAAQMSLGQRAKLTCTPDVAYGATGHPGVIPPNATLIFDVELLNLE
Test [14] concerns the target T2, Peptidyl-prolyl cis-trans isomerase FKBP4 (Homo sapiens, UniProt Q02790).
T2 sequence (Q02790 whole entry): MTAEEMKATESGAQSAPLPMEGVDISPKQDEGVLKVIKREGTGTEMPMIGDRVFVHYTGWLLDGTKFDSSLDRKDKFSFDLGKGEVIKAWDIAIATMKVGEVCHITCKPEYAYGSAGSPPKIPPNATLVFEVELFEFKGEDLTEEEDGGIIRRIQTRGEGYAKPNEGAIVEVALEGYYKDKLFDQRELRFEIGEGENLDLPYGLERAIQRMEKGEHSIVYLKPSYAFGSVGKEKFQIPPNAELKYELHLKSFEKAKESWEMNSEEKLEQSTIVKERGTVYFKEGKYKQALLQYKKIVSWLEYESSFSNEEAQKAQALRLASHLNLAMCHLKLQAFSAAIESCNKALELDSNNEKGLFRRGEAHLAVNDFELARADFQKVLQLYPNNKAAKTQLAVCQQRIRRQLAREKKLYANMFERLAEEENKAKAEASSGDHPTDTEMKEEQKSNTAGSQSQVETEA
Briefly: Binding affinity to human FKBP52 FK1 domain expressed in Escherichia coli BL21 DE3 Gold assessed as dissociation constant incubated for 30 mins by competitive fluorescence polarization assay.

The subject of test [15] is HEK293T. Briefly: Stabilization of FLAG-tagged human FKBP51 K52pBpa incorporation mutant/human Akt T308A mutant in HEK293T cells assessed as photocrosslinking adduct formation at 1 uM pretreated with compound followed by UV irradiation for 30 mins by immunoprecipitation based Western blot analysis. In kind it is cell-based.
In test [16] the test system is HEK293T. Nature of the test: Stabilization of FLAG tagged human FKBP51 P120pBpa incorporation mutant/human Akt complex in HEK293T cells assessed as increase in photocrosslinking at 1 uM pretreated with compound followed by UV irradiation for 30 mins by immunoprecipitation based Western blot analysis. In kind it is cell-based.
Test [17] deals with HEK293T. Briefly: Stabilization of FLAG-tagged human FKBP51 K52pBpa incorporation mutant/wild type Akt in HEK293T cells assessed as photocrosslinking adduct formation at 1 uM pretreated with compound followed by UV irradiation for 30 mins by immunoprecipitation based Western blot analysis. The test is classed as cell-based.
Test [18] concerns HEK293T. Briefly: Stabilization of FLAG tagged human FKBP51 K52pBpa incorporation mutant/human Akt complex in HEK293T cells assessed as increase in photocrosslinking at 1 uM pretreated with compound followed by UV irradiation for 30 mins by immunoprecipitation based Western blot analysis. In kind it is cell-based.
For test [19], the system named is HEK293T. Briefly: Stabilization of FLAG-tagged human FKBP51 K52pBpa incorporation mutant/human Akt S473D mutant in HEK293T cells assessed as photocrosslinking adduct formation at 1 uM pretreated with compound followed by UV irradiation for 30 mins by immunoprecipitation based Western blot analysis. The test is classed as cell-based.

For the compound `C[C@@H]1/C=C/CC/C=C/C(=O)[C@H](C)[C@@H]2CC[C@@H](C)[C@@](O)(O2)C(=O)C(=O)N2CCCC[C@H]2C(=O)O[C@H]([C@H](C)C[C@@H]2CC[C@@H](O)[C@H](O)[C@H]2O)CC1`, the outcome in test [1], in test [4], in [5], in test [6], in [7] and in [8] was Active. The outcome in [9], in test [10], in test [11], in test [12], in test [15] and in test [16] was Active. For the same compound, the result in [17], in test [18] and in test [19] was Active. Also, the equilibrium dissociation constant (Kd) in test [2] is 0.03 nM; in [3], 6.7 nM; in test [13] it was 0.38 nM; in test [14], 1.2 nM.
On to `CO[C@H]1C[C@@H]2CC[C@@H](C)[C@@](O)(O2)C(=O)C(=O)N2CCCC[C@H]2C(=O)O[C@H]([C@H](C)C[C@@H]2CC[C@@H](O)[C@H](OC)C2)CC(=O)[C@H](C)/C=C(\C)[C@@H](O)[C@@H](OC)C(=O)[C@H](C)C[C@H](C)/C=C/C=C/C=C/1C` [SIROLIMUS], for which the values for the dissociation constant Kd in test [3] and in test [14] were 8.5 nM and 12 nM, respectively. Moreover, in test [6], the result was inactive.
For `C=CC[C@@H]1/C=C(\C)C[C@H](C)C[C@H](OC)[C@H]2O[C@@](O)(C(=O)C(=O)N3CCCC[C@H]3C(=O)O[C@H](/C(C)=C/[C@@H]3CC[C@@H](O)[C@H](OC)C3)[C@H](C)[C@@H](O)CC1=O)[C@H](C)C[C@@H]2OC` [TACROLIMUS ANHYDROUS], the Kd in test [3] came to 75.9 nM. Besides, the result in test [6] was inactive.
